Patent US9828360B2 (Array BioPharma Inc., priority 2012, dated 2017)

Experiments:
Assay in all cases: KinaseProfiler off-target kinase profiling
Type in all cases: biochemical
Details in all cases: 10 μM, ATP near Km
MAPKAP-K2 = target: T1, MAPKAP-K2 (Homo sapiens, UniProt P49137)
T1 construct: purchased Millipore, Inc. (KinaseProfiler service)
Outline: (§1)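 Single-point testing at 10 μM compound, run in duplicate, with ATP near the Km of each individual kinase. Values are percent of control (POC), averaged over the two replicates.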

IRAK4 = target: T2, IRAK4 (Homo sapiens, UniProt Q9NWZ3)
T2 construct: purchased Millipore, Inc. (KinaseProfiler service)
Outline: as §1

PKCepsilon = target: T3, PKCepsilon (Homo sapiens, UniProt Q02156)
T3 construct: purchased Millipore, Inc. (KinaseProfiler service)
Outline: as §1

PKCalpha = target: T4, PKCalpha (Homo sapiens, UniProt P17252)
T4 construct: purchased Millipore, Inc. (KinaseProfiler service)
Outline: as §1

LKB1 = target: T5, LKB1 (Homo sapiens, UniProt Q15831)
T5 construct: purchased Millipore, Inc. (KinaseProfiler service)
Outline: as §1

CDK6/cyclinD3 = target: T6, CDK6/cyclinD3 (Homo sapiens, UniProt Q00534)
T6 construct: purchased Millipore, Inc. (KinaseProfiler service)
Outline: as §1

MSK2 = target: T7, MSK2 (Homo sapiens, UniProt O75676)
T7 construct: purchased Millipore, Inc. (KinaseProfiler service)
Outline: as §1

CK1delta = target: T8, CK1delta (Homo sapiens, UniProt P48730)
T8 construct: purchased Millipore, Inc. (KinaseProfiler service)
Outline: as §1

PKD2 = target: T9, PKD2 (Homo sapiens, UniProt Q9BZL6)
T9 construct: purchased Millipore, Inc. (KinaseProfiler service)
Outline: as §1

CDK1/cyclinB = target: T10, CDK1/cyclinB (Homo sapiens, UniProt P06493)
T10 construct: purchased Millipore, Inc. (KinaseProfiler service)
Outline: as §1

MEK1 = target: T11, MEK1 (Homo sapiens, UniProt Q02750)
T11 construct: purchased Millipore, Inc. (KinaseProfiler service)
Outline: as §1

EphB1 = target: T12, EphB1 (Homo sapiens, UniProt P54762)
T12 construct: purchased Millipore, Inc. (KinaseProfiler service)
Outline: as §1

ROCK-I = target: T13, ROCK-I (Homo sapiens, UniProt Q13464)
T13 construct: purchased Millipore, Inc. (KinaseProfiler service)
Outline: as §1

FAK2 = target: T14, FAK2 (Homo sapiens, UniProt Q14289)
T14 construct: purchased Millipore, Inc. (KinaseProfiler service)
Outline: as §1

WNK2 = target: T15, WNK2 (Homo sapiens, UniProt Q9Y3S1)
T15 construct: purchased Millipore, Inc. (KinaseProfiler service)
Outline: as §1

MSK1 = target: T16, MSK1 (Homo sapiens, UniProt O75582)
T16 construct: purchased Millipore, Inc. (KinaseProfiler service)
Outline: as §1

EphA2 = target: T17, EphA2 (Homo sapiens, UniProt P29317)
T17 construct: purchased Millipore, Inc. (KinaseProfiler service)
Outline: as §1

EphA8 = target: T18, EphA8 (Homo sapiens, UniProt P29322)
T18 construct: purchased Millipore, Inc. (KinaseProfiler service)
Outline: as §1

ALK4 = target: T19, ALK4 (Homo sapiens, UniProt P36896)
T19 construct: purchased Millipore, Inc. (KinaseProfiler service)
Outline: as §1

Yes = target: T20, Yes (Homo sapiens, UniProt P07947)
T20 construct: purchased Millipore, Inc. (KinaseProfiler service)
Outline: as §1

Ron = target: T21, Ron (Homo sapiens, UniProt Q04912)
T21 construct: purchased Millipore, Inc. (KinaseProfiler service)
Outline: as §1

MAPKAP-K5 = target: T22, MAPKAP-K5 (Homo sapiens, UniProt Q8IW41)
T22 construct: purchased Millipore, Inc. (KinaseProfiler service)
Outline: as §1

ROCK-II = target: T23, ROCK-II (Homo sapiens, UniProt O75116)
T23 construct: purchased Millipore, Inc. (KinaseProfiler service)
Outline: as §1

FGFR2 = target: T24, FGFR2 (Homo sapiens, UniProt P21802)
T24 construct: purchased Millipore, Inc. (KinaseProfiler service)
Outline: as §1

TSSK1 = target: T25, TSSK1 (Homo sapiens, UniProt Q9BXA7)
T25 construct: purchased Millipore, Inc. (KinaseProfiler service)
Outline: as §1

PKCeta = target: T26, PKCeta (Homo sapiens, UniProt P24723)
T26 construct: purchased Millipore, Inc. (KinaseProfiler service)
Outline: as §1

ULK2 = target: T27, ULK2 (Homo sapiens, UniProt Q8IYT8)
T27 construct: purchased Millipore, Inc. (KinaseProfiler service)
Outline: as §1

EphB4 = target: T28, EphB4 (Homo sapiens, UniProt P54760)
T28 construct: purchased Millipore, Inc. (KinaseProfiler service)
Outline: as §1

EphB2 = target: T29, EphB2 (Homo sapiens, UniProt P29323)
T29 construct: purchased Millipore, Inc. (KinaseProfiler service)
Outline: as §1

CK1gamma3 = target: T30, CK1gamma3 (Homo sapiens, UniProt Q9Y6M4)
T30 construct: purchased Millipore, Inc. (KinaseProfiler service)
Outline: as §1

CHK1 = target: T31, CHK1 (Homo sapiens, UniProt O14757)
T31 construct: purchased Millipore, Inc. (KinaseProfiler service)
Outline: as §1

NEK2 = target: T32, NEK2 (Homo sapiens, UniProt P51955)
T32 construct: purchased Millipore, Inc. (KinaseProfiler service)
Outline: as §1

Fgr = target: T33, Fgr (Homo sapiens, UniProt P09769)
T33 construct: purchased Millipore, Inc. (KinaseProfiler service)
Outline: as §1

MST3 = target: T34, MST3 (Homo sapiens, UniProt Q9Y6E0)
T34 construct: purchased Millipore, Inc. (KinaseProfiler service)
Outline: as §1

Met = target: T35, Met (Homo sapiens, UniProt P08581)
T35 construct: purchased Millipore, Inc. (KinaseProfiler service)
Outline: as §1

CDK2/cyclinE = target: T36, CDK2/cyclinE (Homo sapiens, UniProt P24941)
T36 construct: purchased Millipore, Inc. (KinaseProfiler service)
Outline: as §1

CDK9/cyclinT1 = target: T37, CDK9/cyclinT1 (Homo sapiens, UniProt P50750)
T37 construct: purchased Millipore, Inc. (KinaseProfiler service)
Outline: as §1

RIPK2 = target: T38, RIPK2 (Homo sapiens, UniProt O43353)
T38 construct: purchased Millipore, Inc. (KinaseProfiler service)
Outline: as §1

KIT = target: T39, KIT (Homo sapiens, UniProt P10721)
T39 construct: purchased Millipore, Inc. (KinaseProfiler service)
Outline: as §1

MYLK = target: T40, MYLK (Homo sapiens, UniProt Q15746)
T40 construct: purchased Millipore, Inc. (KinaseProfiler service)
Outline: as §1

Rsk3 = target: T41, Rsk3 (Homo sapiens, UniProt Q15349)
T41 construct: purchased Millipore, Inc. (KinaseProfiler service)
Outline: as §1

T7 sequence (O75676 whole entry): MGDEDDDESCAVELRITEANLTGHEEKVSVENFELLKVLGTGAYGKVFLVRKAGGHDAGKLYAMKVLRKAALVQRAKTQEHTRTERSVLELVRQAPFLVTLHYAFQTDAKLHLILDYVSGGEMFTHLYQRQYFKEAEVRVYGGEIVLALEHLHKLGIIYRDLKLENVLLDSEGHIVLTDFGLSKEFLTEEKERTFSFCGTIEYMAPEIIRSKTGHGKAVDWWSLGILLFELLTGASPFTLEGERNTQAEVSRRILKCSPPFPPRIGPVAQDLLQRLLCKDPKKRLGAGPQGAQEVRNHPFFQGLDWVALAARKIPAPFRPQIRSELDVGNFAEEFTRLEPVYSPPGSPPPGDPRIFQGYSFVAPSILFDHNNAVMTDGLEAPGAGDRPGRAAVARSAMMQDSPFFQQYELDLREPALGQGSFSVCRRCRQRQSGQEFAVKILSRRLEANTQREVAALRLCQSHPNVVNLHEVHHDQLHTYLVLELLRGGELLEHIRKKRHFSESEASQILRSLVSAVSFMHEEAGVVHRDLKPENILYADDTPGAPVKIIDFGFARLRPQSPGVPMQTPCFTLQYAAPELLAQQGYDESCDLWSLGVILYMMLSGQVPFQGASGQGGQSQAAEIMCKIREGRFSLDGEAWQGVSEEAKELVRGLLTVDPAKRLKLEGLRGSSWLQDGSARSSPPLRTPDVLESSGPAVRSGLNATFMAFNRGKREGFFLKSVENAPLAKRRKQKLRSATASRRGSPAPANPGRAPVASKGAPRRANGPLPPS
T17 sequence (P29317 24-976): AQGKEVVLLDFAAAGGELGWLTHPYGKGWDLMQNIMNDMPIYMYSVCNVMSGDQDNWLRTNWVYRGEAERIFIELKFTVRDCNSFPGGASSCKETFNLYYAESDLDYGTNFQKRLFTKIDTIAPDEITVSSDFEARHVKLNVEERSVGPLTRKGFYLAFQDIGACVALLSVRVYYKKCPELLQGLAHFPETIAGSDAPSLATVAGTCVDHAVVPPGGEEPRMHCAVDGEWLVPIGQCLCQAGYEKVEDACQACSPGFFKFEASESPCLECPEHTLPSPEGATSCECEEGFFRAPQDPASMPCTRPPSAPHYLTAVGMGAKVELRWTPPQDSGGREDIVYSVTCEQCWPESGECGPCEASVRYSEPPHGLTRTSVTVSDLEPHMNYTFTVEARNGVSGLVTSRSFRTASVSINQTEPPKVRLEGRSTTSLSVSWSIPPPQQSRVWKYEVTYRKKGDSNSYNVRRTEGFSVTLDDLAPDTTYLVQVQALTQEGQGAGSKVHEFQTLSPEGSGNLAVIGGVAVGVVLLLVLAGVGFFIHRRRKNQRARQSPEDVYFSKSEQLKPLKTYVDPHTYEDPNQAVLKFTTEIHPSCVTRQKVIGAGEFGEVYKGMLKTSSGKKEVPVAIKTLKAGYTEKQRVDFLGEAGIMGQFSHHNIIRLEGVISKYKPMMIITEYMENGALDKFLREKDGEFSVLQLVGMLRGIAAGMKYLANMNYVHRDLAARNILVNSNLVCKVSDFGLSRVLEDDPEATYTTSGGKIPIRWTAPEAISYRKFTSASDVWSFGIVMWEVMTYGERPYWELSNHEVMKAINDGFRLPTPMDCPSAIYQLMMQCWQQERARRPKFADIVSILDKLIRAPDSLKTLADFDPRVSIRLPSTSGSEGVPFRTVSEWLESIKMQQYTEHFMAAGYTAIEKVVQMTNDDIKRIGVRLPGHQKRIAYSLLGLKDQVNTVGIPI
T21 sequence (Q04912 25-1400): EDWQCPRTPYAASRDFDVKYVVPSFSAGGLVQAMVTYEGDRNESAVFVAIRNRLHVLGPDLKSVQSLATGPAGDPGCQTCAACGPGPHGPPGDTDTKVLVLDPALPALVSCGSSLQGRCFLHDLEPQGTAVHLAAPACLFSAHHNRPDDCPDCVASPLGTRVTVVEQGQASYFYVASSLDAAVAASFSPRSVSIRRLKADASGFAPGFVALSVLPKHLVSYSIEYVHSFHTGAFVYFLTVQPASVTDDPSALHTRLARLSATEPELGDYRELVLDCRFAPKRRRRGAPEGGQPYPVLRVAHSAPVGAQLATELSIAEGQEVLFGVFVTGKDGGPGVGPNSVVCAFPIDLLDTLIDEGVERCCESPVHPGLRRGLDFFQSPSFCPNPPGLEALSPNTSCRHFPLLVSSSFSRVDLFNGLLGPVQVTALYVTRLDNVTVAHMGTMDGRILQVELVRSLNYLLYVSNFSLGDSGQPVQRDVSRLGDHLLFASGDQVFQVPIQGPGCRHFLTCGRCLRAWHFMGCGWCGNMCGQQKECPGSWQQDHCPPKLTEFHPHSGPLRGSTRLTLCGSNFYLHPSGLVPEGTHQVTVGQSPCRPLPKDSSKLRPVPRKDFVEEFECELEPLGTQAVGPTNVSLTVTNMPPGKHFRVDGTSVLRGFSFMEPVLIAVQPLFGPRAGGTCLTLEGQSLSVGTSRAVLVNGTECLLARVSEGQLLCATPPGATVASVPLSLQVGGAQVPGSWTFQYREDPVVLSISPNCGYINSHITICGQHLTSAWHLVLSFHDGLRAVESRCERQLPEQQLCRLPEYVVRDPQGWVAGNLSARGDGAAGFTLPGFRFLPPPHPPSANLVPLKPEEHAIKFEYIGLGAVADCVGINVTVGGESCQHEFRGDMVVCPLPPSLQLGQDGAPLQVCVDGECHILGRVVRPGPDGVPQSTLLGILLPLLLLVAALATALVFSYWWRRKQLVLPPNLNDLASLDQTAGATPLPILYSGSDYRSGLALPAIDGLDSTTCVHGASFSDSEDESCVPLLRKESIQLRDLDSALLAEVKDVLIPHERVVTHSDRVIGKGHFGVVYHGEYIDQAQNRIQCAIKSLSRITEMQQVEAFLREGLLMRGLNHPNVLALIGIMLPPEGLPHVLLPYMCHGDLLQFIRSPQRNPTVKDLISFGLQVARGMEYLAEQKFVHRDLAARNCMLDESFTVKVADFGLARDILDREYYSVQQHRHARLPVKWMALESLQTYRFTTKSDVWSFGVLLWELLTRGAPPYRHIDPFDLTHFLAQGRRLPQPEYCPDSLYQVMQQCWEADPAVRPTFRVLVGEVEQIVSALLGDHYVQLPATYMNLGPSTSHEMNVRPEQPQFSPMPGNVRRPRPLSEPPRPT
T1 sequence (P49137 whole entry): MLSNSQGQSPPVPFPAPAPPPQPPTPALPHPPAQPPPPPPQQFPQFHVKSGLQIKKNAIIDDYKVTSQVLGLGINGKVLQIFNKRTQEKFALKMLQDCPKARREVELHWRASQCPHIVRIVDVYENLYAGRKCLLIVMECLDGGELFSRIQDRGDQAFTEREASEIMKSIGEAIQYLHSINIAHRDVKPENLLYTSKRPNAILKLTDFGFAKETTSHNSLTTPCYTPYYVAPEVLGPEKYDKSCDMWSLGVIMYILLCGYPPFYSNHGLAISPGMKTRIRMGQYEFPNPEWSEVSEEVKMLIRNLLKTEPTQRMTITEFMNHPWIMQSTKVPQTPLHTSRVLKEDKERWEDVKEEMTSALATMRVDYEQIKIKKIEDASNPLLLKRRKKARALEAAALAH
T20 sequence (P07947 whole entry): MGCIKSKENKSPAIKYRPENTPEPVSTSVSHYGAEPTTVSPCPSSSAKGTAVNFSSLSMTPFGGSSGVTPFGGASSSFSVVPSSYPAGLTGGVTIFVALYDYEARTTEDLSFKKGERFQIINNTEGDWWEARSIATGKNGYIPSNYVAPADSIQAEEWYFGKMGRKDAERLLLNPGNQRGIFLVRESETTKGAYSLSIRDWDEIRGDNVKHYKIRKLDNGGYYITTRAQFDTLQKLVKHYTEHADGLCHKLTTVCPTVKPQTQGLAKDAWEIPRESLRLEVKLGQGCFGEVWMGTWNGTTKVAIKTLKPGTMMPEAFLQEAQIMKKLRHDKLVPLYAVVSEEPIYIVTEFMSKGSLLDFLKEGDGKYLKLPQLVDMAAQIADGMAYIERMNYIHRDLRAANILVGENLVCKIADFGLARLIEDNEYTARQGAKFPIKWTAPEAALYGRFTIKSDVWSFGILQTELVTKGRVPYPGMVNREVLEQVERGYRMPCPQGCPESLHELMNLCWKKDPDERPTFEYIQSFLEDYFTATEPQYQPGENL
T34 sequence (Q9Y6E0 whole entry): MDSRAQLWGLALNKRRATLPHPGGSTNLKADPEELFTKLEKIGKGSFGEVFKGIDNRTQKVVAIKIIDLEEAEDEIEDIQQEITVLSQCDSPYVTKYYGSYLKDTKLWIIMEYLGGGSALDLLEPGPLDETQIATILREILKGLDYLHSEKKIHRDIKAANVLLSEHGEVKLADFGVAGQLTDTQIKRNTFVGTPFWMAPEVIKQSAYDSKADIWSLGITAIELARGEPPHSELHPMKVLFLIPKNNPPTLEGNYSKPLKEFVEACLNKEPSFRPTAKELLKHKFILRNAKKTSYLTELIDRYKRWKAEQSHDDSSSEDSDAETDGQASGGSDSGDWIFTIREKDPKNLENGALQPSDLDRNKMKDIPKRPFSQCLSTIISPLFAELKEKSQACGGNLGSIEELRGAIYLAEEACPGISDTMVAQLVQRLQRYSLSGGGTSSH
T38 sequence (O43353 whole entry): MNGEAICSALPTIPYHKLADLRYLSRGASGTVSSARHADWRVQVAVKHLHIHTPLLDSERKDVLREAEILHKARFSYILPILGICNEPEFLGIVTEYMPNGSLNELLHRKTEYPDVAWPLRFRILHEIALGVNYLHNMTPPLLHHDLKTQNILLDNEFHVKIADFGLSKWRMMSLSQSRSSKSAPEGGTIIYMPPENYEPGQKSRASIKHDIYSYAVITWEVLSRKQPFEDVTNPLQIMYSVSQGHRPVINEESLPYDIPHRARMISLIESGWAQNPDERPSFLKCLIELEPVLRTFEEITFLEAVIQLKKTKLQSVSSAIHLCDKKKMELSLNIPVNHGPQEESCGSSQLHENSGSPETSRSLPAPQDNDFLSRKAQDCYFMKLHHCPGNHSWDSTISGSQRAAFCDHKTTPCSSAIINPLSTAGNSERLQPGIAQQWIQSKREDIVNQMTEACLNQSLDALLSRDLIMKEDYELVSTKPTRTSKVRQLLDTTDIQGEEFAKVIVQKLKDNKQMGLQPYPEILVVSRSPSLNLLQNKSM

Avg POC (MAPKAP-K2): 109.5% of control
Avg POC (IRAK4): 88% of control
Avg POC (PKCepsilon): 103.5% of control
Avg POC (PKCalpha): 106.5% of control
Avg POC (LKB1): 114.5% of control
Avg POC (CDK6/cyclinD3): 112.5% of control
Avg POC (MSK2): 103.5% of control
Avg POC (CK1delta): 111.5% of control
Avg POC (PKD2): 115.5% of control
Avg POC (CDK1/cyclinB): 106% of control
Avg POC (MEK1): 100% of control
Avg POC (EphB1): 107.5% of control
Avg POC (ROCK-I): 103.5% of control
Avg POC (FAK2): 107.5% of control
Avg POC (WNK2): 92.5% of control
Avg POC (MSK1): 121.5% of control
Avg POC (EphA2): 101% of control
Avg POC (EphA8): 122.5% of control
Avg POC (ALK4): 88.5% of control
Avg POC (Yes): 97.5% of control
Avg POC (Ron): 105.5% of control
Avg POC (MAPKAP-K5): 108% of control
Avg POC (ROCK-II): 104.5% of control
Avg POC (FGFR2): 106.5% of control
Avg POC (TSSK1): 99.5% of control
Avg POC (PKCeta): 93% of control
Avg POC (ULK2): 98.5% of control
Avg POC (EphB4): 99% of control
Avg POC (EphB2): 99.5% of control
Avg POC (CK1gamma3): 110% of control
Avg POC (CHK1): 110% of control
Avg POC (NEK2): 112% of control
Avg POC (Fgr): 111.5% of control
Avg POC (MST3): 97% of control
Avg POC (Met): 109% of control
Avg POC (CDK2/cyclinE): 113% of control
Avg POC (CDK9/cyclinT1): 111.5% of control
Avg POC (RIPK2): 108% of control
Avg POC (KIT): 100% of control
Avg POC (MYLK): 107% of control
Avg POC (Rsk3): 108% of control
SMILES: COCCN1C[C@@H](NC(=O)Nc2sc(C(C)C)nc2-c2ccccc2)[C@H](c2ccccc2)C1 [Example 48, 1-(2-isopropyl-4-phenylthiazol-5-yl)-3-((3S,4R)-1-(2-methoxyethyl)-4-phenylpyrrolidin-3-yl)urea]
